The values below come from ChEMBL document CHEMBL1201862, “PubChem BioAssay data set” (2004).

The structures appear in SMILES notation. The source made the active and inactive calls.

One assay concerns the target Large T antigen (Simian virus 40, UniProt P03070). The class given is functional, Betapolyomavirus macacae.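 Further: Confirmatory-stage PubChem screen for compounds that inhibit SV40 T antigen.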
The target in a further assay is Genome polyprotein (dengue virus type 2, UniProt P29990). The assay is described as follows: flavivirus cap methylation enzyme inhibition – biochemical, confirmation dose response, primary screen (AID 588689). The class given is functional.
Sequence of Genome polyprotein (P29990 2492-3391 limits assumed): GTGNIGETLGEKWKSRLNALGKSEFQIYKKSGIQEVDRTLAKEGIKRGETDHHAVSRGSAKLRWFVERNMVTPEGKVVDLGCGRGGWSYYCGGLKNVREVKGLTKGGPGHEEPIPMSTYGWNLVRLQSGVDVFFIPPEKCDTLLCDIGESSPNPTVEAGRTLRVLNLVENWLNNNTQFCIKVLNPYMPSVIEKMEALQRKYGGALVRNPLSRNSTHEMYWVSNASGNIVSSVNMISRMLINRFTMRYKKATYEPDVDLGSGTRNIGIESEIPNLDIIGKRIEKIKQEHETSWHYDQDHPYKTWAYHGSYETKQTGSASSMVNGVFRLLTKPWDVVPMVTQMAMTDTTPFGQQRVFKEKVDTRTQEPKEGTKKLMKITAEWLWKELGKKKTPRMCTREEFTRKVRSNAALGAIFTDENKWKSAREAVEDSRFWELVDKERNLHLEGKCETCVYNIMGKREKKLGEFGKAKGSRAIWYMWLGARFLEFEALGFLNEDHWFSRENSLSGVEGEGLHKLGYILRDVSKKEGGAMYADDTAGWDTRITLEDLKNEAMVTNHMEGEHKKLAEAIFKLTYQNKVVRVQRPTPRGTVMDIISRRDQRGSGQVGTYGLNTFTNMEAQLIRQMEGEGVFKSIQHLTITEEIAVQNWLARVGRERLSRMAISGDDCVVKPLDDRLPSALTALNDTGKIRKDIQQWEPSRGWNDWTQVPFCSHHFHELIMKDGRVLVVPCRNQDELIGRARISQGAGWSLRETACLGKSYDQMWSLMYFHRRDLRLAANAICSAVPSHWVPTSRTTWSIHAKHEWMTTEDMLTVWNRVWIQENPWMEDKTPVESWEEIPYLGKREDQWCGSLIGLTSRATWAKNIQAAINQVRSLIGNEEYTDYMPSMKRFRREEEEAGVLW
The target in assay [1] is T1, Polyadenylate-binding protein 1 (Homo sapiens, UniProt P11940). The assay is described as follows: MLLE binding blockers, Cy5 peptide tracer – biochemical, fluorescence polarization, Cy5-PAM2 peptide, secondary, miRNA deadenylation inhibitor project, dose response (AID 602260). Type of assay: functional. The conditions noted are these: read-out: IC50_Mean.
T1 sequence (P11940 whole entry, the tested form may be a part): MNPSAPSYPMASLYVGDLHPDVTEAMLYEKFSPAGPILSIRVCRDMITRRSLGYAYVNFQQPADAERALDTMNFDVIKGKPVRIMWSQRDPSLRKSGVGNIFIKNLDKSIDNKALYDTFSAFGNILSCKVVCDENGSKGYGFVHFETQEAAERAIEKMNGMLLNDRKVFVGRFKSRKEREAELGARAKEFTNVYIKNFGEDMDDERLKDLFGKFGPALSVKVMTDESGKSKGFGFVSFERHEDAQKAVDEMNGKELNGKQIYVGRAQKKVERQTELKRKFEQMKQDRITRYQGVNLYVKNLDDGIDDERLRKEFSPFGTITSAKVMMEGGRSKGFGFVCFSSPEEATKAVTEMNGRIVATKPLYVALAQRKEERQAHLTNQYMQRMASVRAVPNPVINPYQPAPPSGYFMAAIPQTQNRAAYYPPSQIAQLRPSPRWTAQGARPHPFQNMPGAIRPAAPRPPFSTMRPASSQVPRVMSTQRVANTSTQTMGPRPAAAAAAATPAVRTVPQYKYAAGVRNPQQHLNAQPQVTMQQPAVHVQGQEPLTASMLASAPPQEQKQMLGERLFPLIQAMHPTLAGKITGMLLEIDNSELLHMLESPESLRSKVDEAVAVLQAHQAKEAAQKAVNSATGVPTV
Assay [2] addresses T1, Polyadenylate-binding protein 1. Kind of assay: MLLE domain peptide-binding blockers, IC50 – biochemical, fluorescence polarization, FITC-PAM2 peptide, dose response (AID 602259). The settings on record: read-out: IC50_Mean. Type of assay: functional.
Another assay can be described thus: cells. Type of assay: functional.
Assay [3] in a line: viability of PTEN-deleted HCT116 cells – cell-based, HCT116 PTEN knockout, dose response (AID 1047).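 Further: HCT116 colon tumor cells with PTEN knocked out; cells exposed to compound for 60 hours before readout; potency for loss of cell viability measured by luminescence.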 The class given is functional.
A short description of assay [4]: viability of HCT116 lacking mutant beta-catenin – cell-based, human colon tumor, dose response (AID 1045).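 Further: HCT116 colon tumor cells with beta catenin knocked out; cells exposed to compound for 60 hours.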 Type of assay: functional.
Assay [5] has as its target T2, Corticotropin-releasing factor receptor 2/Corticotropin-releasing factor-binding protein (Homo sapiens, UniProt P24387+Q13324).
T2 sequence (Q13324 whole entry): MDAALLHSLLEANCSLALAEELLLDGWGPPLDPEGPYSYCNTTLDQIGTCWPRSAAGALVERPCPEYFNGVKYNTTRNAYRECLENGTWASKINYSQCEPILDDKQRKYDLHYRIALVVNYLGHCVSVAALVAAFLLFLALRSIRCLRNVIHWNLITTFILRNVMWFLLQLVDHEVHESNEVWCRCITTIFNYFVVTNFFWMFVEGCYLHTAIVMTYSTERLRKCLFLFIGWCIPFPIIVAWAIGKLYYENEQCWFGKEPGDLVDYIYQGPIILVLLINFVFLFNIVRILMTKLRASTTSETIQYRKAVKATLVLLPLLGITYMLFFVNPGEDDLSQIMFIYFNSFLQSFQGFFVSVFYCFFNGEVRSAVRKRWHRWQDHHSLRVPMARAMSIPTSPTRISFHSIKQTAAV
T2 sequence (P24387 whole entry): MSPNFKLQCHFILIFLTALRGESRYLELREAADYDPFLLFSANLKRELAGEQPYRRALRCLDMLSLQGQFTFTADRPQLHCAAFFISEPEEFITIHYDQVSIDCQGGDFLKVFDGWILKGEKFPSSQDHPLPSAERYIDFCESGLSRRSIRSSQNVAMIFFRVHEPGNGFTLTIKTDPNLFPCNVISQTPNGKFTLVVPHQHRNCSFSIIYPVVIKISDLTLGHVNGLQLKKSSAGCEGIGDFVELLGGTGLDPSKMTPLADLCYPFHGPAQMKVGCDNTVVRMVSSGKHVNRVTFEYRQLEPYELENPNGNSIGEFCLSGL
The assay is described as follows: Dose Response confirmation of uHTS hits for small molecule antagonists of the CRF-binding protein and CRF-R2 receptor complex. The class given is functional. The conditions noted are these: read-out: IC50_Mean.

The target in assay [6] is T2, Corticotropin-releasing factor receptor 2/Corticotropin-releasing factor-binding protein. The assay is described as follows: activators of CRF receptor 2 with binding protein – uHTS hits, confirmation (AID 602473). Type of assay: functional. The settings on record: read-out: EC50_Mean.
The nature of assay [7]: blockers of HIV-1 ZM109 envelope-driven cell-cell fusion – HeLa effector, CEM target cells, luciferase, cherry-pick, dose response (AID 652058).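 Further: luciferase signal from HIV-1 Env mediated cell-cell fusion of effector and target cells.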 Type of assay: functional, cell-based.
Assay [8] can be described thus: blockers of HIV-1 envelope-mediated cell-cell fusion – cherry-pick, dose response (AID 652057). The class given is functional, cell-based.
The target in assay [9] is T3, Rac GTPase-activating protein 1 (Homo sapiens, UniProt Q9H0H5).
T3 sequence (Q9H0H5 whole entry): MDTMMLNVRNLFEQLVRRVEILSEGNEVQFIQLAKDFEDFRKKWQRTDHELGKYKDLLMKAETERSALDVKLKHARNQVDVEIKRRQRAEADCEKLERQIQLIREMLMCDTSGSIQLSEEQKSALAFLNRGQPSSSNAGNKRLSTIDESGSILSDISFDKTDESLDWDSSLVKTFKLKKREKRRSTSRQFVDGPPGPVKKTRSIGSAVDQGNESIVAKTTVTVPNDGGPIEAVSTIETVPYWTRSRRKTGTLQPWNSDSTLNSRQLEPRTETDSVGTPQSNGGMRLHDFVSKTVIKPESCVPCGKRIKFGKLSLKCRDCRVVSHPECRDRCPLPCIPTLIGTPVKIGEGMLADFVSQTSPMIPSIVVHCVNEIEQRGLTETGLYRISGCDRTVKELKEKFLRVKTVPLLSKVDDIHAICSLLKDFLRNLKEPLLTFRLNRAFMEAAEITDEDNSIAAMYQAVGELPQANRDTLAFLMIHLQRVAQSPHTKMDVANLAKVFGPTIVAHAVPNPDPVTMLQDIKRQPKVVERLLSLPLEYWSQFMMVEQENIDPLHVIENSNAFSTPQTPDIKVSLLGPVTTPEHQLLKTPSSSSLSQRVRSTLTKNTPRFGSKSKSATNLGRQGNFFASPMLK
Kind of assay: blockers of MgcRacGAP-driven Rac1 GTP hydrolysis – biochemical, ADP Hunter fluorescence, primary and confirmatory, confirmation (AID 624330). The class given is functional.

Sequence of Large T antigen (P03070 whole entry): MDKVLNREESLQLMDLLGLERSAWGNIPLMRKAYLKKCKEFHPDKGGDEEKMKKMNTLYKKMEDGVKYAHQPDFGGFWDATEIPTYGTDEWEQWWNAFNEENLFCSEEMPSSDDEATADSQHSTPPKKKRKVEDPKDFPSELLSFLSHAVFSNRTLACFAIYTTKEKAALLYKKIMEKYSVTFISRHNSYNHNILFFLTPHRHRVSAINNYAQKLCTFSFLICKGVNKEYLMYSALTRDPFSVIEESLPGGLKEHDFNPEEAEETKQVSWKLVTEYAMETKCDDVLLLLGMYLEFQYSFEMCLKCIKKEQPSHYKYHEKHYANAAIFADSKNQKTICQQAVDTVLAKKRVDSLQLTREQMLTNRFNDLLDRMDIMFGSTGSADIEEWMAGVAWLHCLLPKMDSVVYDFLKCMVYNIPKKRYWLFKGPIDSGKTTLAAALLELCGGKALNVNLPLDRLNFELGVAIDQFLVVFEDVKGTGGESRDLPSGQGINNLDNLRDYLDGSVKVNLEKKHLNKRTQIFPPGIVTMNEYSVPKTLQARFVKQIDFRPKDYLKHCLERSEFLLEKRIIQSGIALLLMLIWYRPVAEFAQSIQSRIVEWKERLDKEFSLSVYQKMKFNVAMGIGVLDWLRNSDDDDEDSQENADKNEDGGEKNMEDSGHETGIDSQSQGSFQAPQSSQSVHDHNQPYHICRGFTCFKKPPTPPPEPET

Turning to `COc1cc(CNc2ccc3c(c2)OCCO3)ccc1OCC(N)=O`, the IC50 at Large T antigen is 40 µM (active).
Turning to `Nc1nc2ncc(C(=O)c3cc(Cl)cc(Cl)c3O)cc2s1`, the IC50 at Genome polyprotein is > 100 µM (active).
Still for that read-out and setting: in the case of `CCn1nc([N+](=O)[O-])c(C(C#N)c2nc3ccccc3n2C)c(Cl)c1=O` (stereo not given) it was > 100 µM (active).
Consider `CCc1ccc(C(=O)NC(=S)Nc2ccc(N3CCOCC3)cc2)cc1`, for which the IC50 in assay [1] and in assay [2] was > 66 µM (inactive) in each case.
Take `CCOC(=O)CNc1ccc(C(=O)OCC)cc1[N+](=O)[O-]`: the IC50 in “cells” is 13.3 µM (active).
Regarding `O=C1NC(=O)C(=Cc2ccccc2OCCOc2ccc([N+](=O)[O-])cc2)C(=O)N1`, the IC50 at Large T antigen is 55.9 µM (active).
Regarding `CCOc1ccccc1NC(=O)N1CCCC(c2nc(O)c3nnn(Cc4ccc(C)cc4)c3n2)C1` (stereo not given), the values for the EC50 in assay [3] and in assay [4] were 33.7 µM (active) and 37.4 µM (active), respectively.
On to `COc1ccc(Nc2nc(N)nc(CN3CCc4ccccc4C3)n2)cc1`, for which the EC50 in assay [3] was 41.9 µM (active); in assay [4], 33.2 µM (active).
On to `O=C(Nc1ccc(O)cc1)c1ccc2c(c1)C(=O)N(Cc1ccco1)C2=O`, for which, at Large T antigen, the IC50 is 9.65 µM (active).
Regarding `COc1ccc(SC[C@H](C)CN2CC[C@H](C(C)(C)C)CCC2=O)cc1`, the IC50 in [1] and in assay [2] was > 66 µM (inactive) throughout.
Take `CN(C)c1ccc(NC(=O)COC(=O)CCC(=O)c2ccc(F)cc2)cc1`: at Large T antigen, the IC50 is 19.2 µM (active).
On to `COc1c(S(=O)(=O)NCCCN2CCOCC2)ccc(Cl)c1Cl`, for which the IC50 in assay [1] and in assay [2] was > 66 µM (inactive) each time.
`CCOC(=O)C1CCN(c2nc3cc(OC)ccc3cc2C#N)CC1`: the IC50 in the assay “cells” was 8.59 µM (active); in [5] it was > 47.1 µM (inactive). Also, the EC50 in assay [6] is > 53 µM (inactive).
For `CCOc1ccccc1N=C(S)N(Cc1cc2ccc(C)cc2nc1O)CC1CCCN1CC` (stereo not given), the EC50 in assay [3] was 20.5 µM (active); in [4], 17.4 µM (active).
As for `Cc1nn2c(O)c3c(nc2c1-c1ccccc1)CCCC3`, in “cells”, the IC50 is 11.8 µM (active).
As to `O=C(O)CN1C(=O)/C(=C\c2cc(Br)ccc2OCc2ccccc2F)SC1=S`, the IC50 on Genome polyprotein is 33.1 µM (active).
Turning to `COCCCNC(=O)COC(=O)c1ccc(-c2nc3ccccc3s2)s1`, the IC50 in the assay “cells” was 10.5 µM (active).
With `COC(=O)c1ccc2c(=O)n(NC(=O)C(c3ccccc3)c3ccccc3)c(=S)[nH]c2c1`, the IC50 in assay [1] and in assay [2] was > 66 µM (inactive) throughout.
Turning to `COc1cc(OC)cc(C(=O)NCC(=O)N2CCN(c3ccc(O)cc3)CC2)c1`, the IC50 at Large T antigen is 65.2 µM (active).
In the case of `COc1cc(OC)cc(-c2nc3ccccc3c(=O)o2)c1`, the IC50 in “cells” was 8.58 µM (active).
Take `CCOC(=O)c1c(/N=C/c2cccc([N+](=O)[O-])c2O)sc(C)c1C`: the IC50 at Genome polyprotein was 77.1 µM (active); in assay [2], 36.1 µM (inactive).
As for `Fc1c(F)c(F)c(/C=N/NC(=S)Nc2cccnc2)c(F)c1F`, the IC50 in assay [1] and in assay [2] was > 66 µM (inactive) throughout.
Regarding `COc1ccc(S(=O)(=O)N[C@H]2C=C[C@H](CC(=O)N3CCN(c4ccccc4)CC3)O[C@@H]2CO)cc1`, the values for the AC50 in assay [7] and in [8] were 36.8 µM (active) and 26.7 µM (active), respectively.
As for `COc1ccc2[nH]c3c(=O)n(CCCCC(=O)NCCN4CCCC4)c(=S)[nH]c3c2c1`, on Large T antigen, the IC50 is 10.4 µM (active).
As to `CSCC[C@H](NC(=O)OC(C)(C)C)C(=O)N/N=C/c1cc2ccc(C)cc2nc1Cl`, the EC50 was 18.7 µM (active) in [3] and 17.7 µM (active) in assay [4].
For the molecule `Oc1ccc(/C=N/NC(=S)NCC2CCCO2)cc1` (stereo not given), the IC50 at Large T antigen is 5.89 µM (active); in assay [9], 30.8 µM (active).
